{
  "source": "PubChem BioAssay AID328",
  "about": "(DTP/NCI, 2004)",
  "tested_on": "BDF1 mice, P388 leukemia ip, median survival T/C",
  "test": "NCI In Vivo Anticancer Drug Screen. Data for tumor model P388 Leukemia (intraperitoneal) in B6D2F1 (BDF1) mice",
  "conditions": "endpoint: median survival time, higher = longer survival",
  "method": "The antitumor activity of compounds was measured in mice bearing transplantable tumors. Survival or tumor size were measured and the results are expressed as the measurement made in the treated group (T) divided by the measurement made in the vehicle treated control group (C). The tumor model used in this assay is P388 Leukemia (intraperitoneal) in B6D2F1 (BDF1) mice",
  "key": {"[1]": {"conditions": "dose: 25.0 mg/kg/injection, schedule: Q01DX009 (ip), vehicle: Klucel (hydroxypropylcellulose) (HPC)"}, "[2]": {"conditions": "dose: 50.0 mg/kg/injection, schedule: Q01DX009 (ip), vehicle: Klucel (hydroxypropylcellulose) (HPC)"}, "[3]": {"conditions": "dose: 100.0 mg/kg/injection, schedule: Q04DX003 (ip), vehicle: Klucel (hydroxypropylcellulose) (HPC)"}, "[4]": {"conditions": "dose: 200.0 mg/kg/injection, schedule: Q04DX003 (ip), vehicle: Klucel (hydroxypropylcellulose) (HPC)"}, "[5]": {"conditions": "dose: 400.0 mg/kg/injection, schedule: Q04DX003 (ip), vehicle: Klucel (hydroxypropylcellulose) (HPC)"}, "[6]": {"conditions": "dose: 100.0 mg/kg/injection, schedule: Q04DX003 (ip), vehicle: saline with Tween-80"}, "[7]": {"conditions": "dose: 200.0 mg/kg/injection, schedule: Q04DX003 (ip), vehicle: saline with Tween-80"}, "[8]": {"conditions": "dose: 400.0 mg/kg/injection, schedule: Q04DX003 (ip), vehicle: saline with Tween-80"}, "[9]": {"conditions": "dose: 100.0 mg/kg/injection, schedule: Q01DX009 (ip), vehicle: Klucel (hydroxypropylcellulose) (HPC)"}, "[10]": {"conditions": "dose: 50.0 mg/kg/injection, schedule: Q01DX009 (ip), vehicle: saline"}, "[11]": {"conditions": "dose: 100.0 mg/kg/injection, schedule: Q01DX009 (ip), vehicle: saline"}, "[12]": {"conditions": "dose: 25.0 mg/kg/injection, schedule: Q01DX009 (ip), vehicle: saline"}},
  "note": "Where “and” joins values, the source holds several entries; their conditions need not be identical. Equal values may be shown once. Toxic doses and inconclusive results are not listed.",
  "data": [
    {"smiles": "O=C1NC(=O)C2C3C(C(O)(c4ccccc4)c4ccccn4)=CC(/C3=C(\\c3ccccc3)c3ccccn3)C12", "note": "(configuration not stated)", "values": [
      {"measurement": "T/C", "setting": "dose: 12.5 mg/kg/injection, schedule: Q01DX009 (ip), vehicle: Klucel (hydroxypropylcellulose) (HPC)", "result": "100 % of control"},
      {"measurement": "T/C", "setting": "[1]", "result": "113 % of control"},
      {"measurement": "T/C", "setting": "[2]", "result": "86 % of control"},
      {"measurement": "T/C", "setting": "[3]", "result": "109 % of control"},
      {"measurement": "T/C", "setting": "[4]", "result": "100 % of control"},
      {"measurement": "T/C", "setting": "[5]", "result": "100 % of control"}
    ]},
    {"smiles": "O=C1c2ccccc2C(=O)C1C(C[N+](=O)[O-])c1ccccc1", "note": "(configuration not stated)", "values": [
      {"measurement": "T/C", "setting": "dose: 25.0 mg/kg/injection, schedule: Q01DX005 (ip), vehicle: saline with Tween-80", "result": "118 % of control"},
      {"measurement": "T/C", "setting": "dose: 50.0 mg/kg/injection, schedule: Q01DX005 (ip), vehicle: saline with Tween-80", "result": "99 % of control"}
    ]},
    {"smiles": "NC(=O)c1ccc(C(N)=O)cc1", "values": [
      {"measurement": "T/C", "setting": "[6]", "result": "100 % of control"},
      {"measurement": "T/C", "setting": "[7]", "result": "104 % of control"},
      {"measurement": "T/C", "setting": "[8]", "result": "100 % of control"}
    ]},
    {"smiles": "CCOC(=O)/C(Cc1cnc2ccccc2n1)=N\\O", "values": [
      {"measurement": "T/C", "setting": "[6]", "result": "95 % of control"},
      {"measurement": "T/C", "setting": "[7]", "result": "100 % of control"},
      {"measurement": "T/C", "setting": "[8]", "result": "100 % of control"}
    ]},
    {"smiles": "CCOC(=O)C(Br)(C(=O)OCC)C(c1ccccc1)c1ccccc1", "values": [
      {"measurement": "T/C", "setting": "dose: 100.0 mg/kg/injection, schedule: Q01DX009 (ip), vehicle: saline with Tween-80", "result": "95 % of control"},
      {"measurement": "T/C", "setting": "dose: 400.0 mg/kg/injection, schedule: Q01DX009 (ip), vehicle: saline with Tween-80", "result": "109 % of control"}
    ]},
    {"smiles": "CP(C)c1ccccc1", "values": [
      {"measurement": "T/C", "setting": "[1]", "result": "92 % of control"},
      {"measurement": "T/C", "setting": "[2]", "result": "96 % of control"},
      {"measurement": "T/C", "setting": "dose: 50.0 mg/kg/injection, schedule: Q04DX003 (ip), vehicle: Klucel (hydroxypropylcellulose) (HPC)", "result": "100 % of control"},
      {"measurement": "T/C", "setting": "[9]", "result": "103 % of control"},
      {"measurement": "T/C", "setting": "[3]", "result": "123 % of control"}
    ]},
    {"smiles": "CC(=O)[C@H]1CC[C@H]2[C@@H]3C[C@H](C)C4=CC(=O)CC[C@]4(C)[C@H]3C(=O)C[C@]12C", "values": [
      {"measurement": "T/C", "setting": "[6]", "result": "103 % of control"},
      {"measurement": "T/C", "setting": "[7]", "result": "107 % of control"},
      {"measurement": "T/C", "setting": "[8]", "result": "103 % of control"}
    ]},
    {"smiles": "COC(=O)C(C)CN1CCCCC1", "note": "(configuration not stated)", "values": [
      {"measurement": "T/C", "setting": "[10]", "result": "105 % of control"},
      {"measurement": "T/C", "setting": "[11]", "result": "110 % of control"},
      {"measurement": "T/C", "setting": "dose: 200.0 mg/kg/injection, schedule: Q01DX009 (ip), vehicle: saline", "result": "110 % of control"}
    ]},
    {"smiles": "COc1ccc(NCCOc2ccccc2Br)cc1", "values": [
      {"measurement": "T/C", "setting": "dose: 100.0 mg/kg/injection, schedule: Q01DX009 (ip), vehicle: other", "result": "109 % of control"},
      {"measurement": "T/C", "setting": "dose: 400.0 mg/kg/injection, schedule: Q01DX009 (ip), vehicle: other", "result": "118 % of control"}
    ]},
    {"smiles": "O=C1NC(c2ccccc2)(c2ccccc2)C(=O)N1CCS", "values": [
      {"measurement": "T/C", "setting": "dose: 6.25 mg/kg/injection, schedule: Q01DX009 (ip), vehicle: saline", "result": "89 % of control and 122 % of control"},
      {"measurement": "T/C", "setting": "dose: 12.5 mg/kg/injection, schedule: Q01DX009 (ip), vehicle: saline", "result": "104 % of control and 107 % of control"},
      {"measurement": "T/C", "setting": "[12]", "result": "106 % of control and 116 % of control"},
      {"measurement": "T/C", "setting": "dose: 25.0 mg/kg/injection, schedule: Q04DX003 (ip), vehicle: saline", "result": "98 % of control"},
      {"measurement": "T/C", "setting": "[10]", "result": "95 % of control and 105 % of control"}
    ]},
    {"smiles": "Cc1ccc(NCCN2CCCCC2)c2c(=O)c3ccccc3sc12", "values": [
      {"measurement": "T/C", "setting": "[9]", "result": "115 % of control"},
      {"measurement": "T/C", "setting": "[3]", "result": "115 % of control"},
      {"measurement": "T/C", "setting": "dose: 200.0 mg/kg/injection, schedule: Q01DX009 (ip), vehicle: Klucel (hydroxypropylcellulose) (HPC)", "result": "110 % of control"},
      {"measurement": "T/C", "setting": "[4]", "result": "115 % of control"},
      {"measurement": "T/C", "setting": "dose: 264.0 mg/kg/injection, schedule: Q01DX009 (ip), vehicle: Klucel (hydroxypropylcellulose) (HPC)", "result": "150 % of control"},
      {"measurement": "T/C", "setting": "dose: 264.0 mg/kg/injection, schedule: Q04DX003 (ip), vehicle: Klucel (hydroxypropylcellulose) (HPC)", "result": "118 % of control and 120 % of control"},
      {"measurement": "T/C", "setting": "[5]", "result": "122 % of control"}
    ]},
    {"smiles": "Cn1c(=O)c2[nH]c(CCCc3nc4c([nH]3)c(=O)n(C)c(=O)n4C)nc2n(C)c1=O", "values": [
      {"measurement": "T/C", "setting": "[12]", "result": "90 % of control"},
      {"measurement": "T/C", "setting": "[10]", "result": "89 % of control"},
      {"measurement": "T/C", "setting": "dose: 50.0 mg/kg/injection, schedule: Q04DX003 (ip), vehicle: saline", "result": "100 % of control"},
      {"measurement": "T/C", "setting": "[11]", "result": "96 % of control and 122 % of control"},
      {"measurement": "T/C", "setting": "dose: 100.0 mg/kg/injection, schedule: Q04DX003 (ip), vehicle: saline", "result": "108 % of control"}
    ]},
    {"smiles": "CSc1nc2[nH]cnc(=S)c2[nH]1", "values": [
      {"measurement": "T/C", "setting": "dose: 6.25 mg/kg/injection, schedule: Q01DX009 (ip), vehicle: saline with Tween-80", "result": "104 % of control"},
      {"measurement": "T/C", "setting": "dose: 12.5 mg/kg/injection, schedule: Q01DX009 (ip), vehicle: saline with Tween-80", "result": "104 % of control"},
      {"measurement": "T/C", "setting": "dose: 25.0 mg/kg/injection, schedule: Q01DX009 (ip), vehicle: saline with Tween-80", "result": "100 % of control"}
    ]},
    {"smiles": "CC(=O)OCC1OC(O)C(NC(=O)C(F)(F)F)C(OC(C)=O)C1OC(C)=O", "note": "(configuration not stated)", "values": [
      {"measurement": "T/C", "setting": "dose: 12.5 mg/kg/injection, schedule: Q04DX003 (ip), vehicle: saline", "result": "118 % of control"},
      {"measurement": "T/C", "setting": "dose: 12.5 mg/kg/injection, schedule: Q## X003 (ip), vehicle: saline", "result": "104 % of control"},
      {"measurement": "T/C", "setting": "dose: 25.0 mg/kg/injection, schedule: Q## X003 (ip), vehicle: saline", "result": "119 % of control"}
    ]}
  ]
}
